Assay results reported in the supplement of paper PMC10627819.

Columns and labels:
S. aureus Newman [1] = test: fitness (endpoint OD595 vs no drug) (fraction); higher = more growth
Outline: (§1)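 In 384-well plates at 37 °C, cultures began at OD595 0.01 in 30 µl, with 55 µl used for S. pneumoniae. OD595 readings every 30 min for 14 h were corrected by the first reading. Fitness divides the stationary-phase transition optical density by the robust mean of no-drug control wells. The result is capped at 1.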

B. subtilis 168 [2] = test: as above
Outline: as §1

S. pneumoniae D39V [3] = test: as above
Outline: as §1

S. aureus Newman [4] = test: Bliss interaction score (quartile over a dose matrix) (fitness difference); higher = more antagonism (negative = synergy)
Outline: (§2)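 The Bliss score is observed fitness minus expected fitness, where the expected value is the product of single-drug fitness values inferred from combination data. Fitness is OD595 at entry into stationary phase normalised to the plate's robust no-drug mean and capped at 1. Scores are reported as quartiles spanning technical, biological and donor/recipient replicates.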

S. aureus DSM 20231 = test: as above
Outline: as §2

B. subtilis 168 [5] = test: as above
Outline: as §2

S. pneumoniae D39V [6] = test: as above
Outline: as §2
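For Bliss interaction score (quartile over a dose matrix) in this document: first quartile when negative (synergy) and third quartile when positive (antagonism).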
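For fitness (endpoint OD595 vs no drug) in this document: OD595 on entry to stationary phase over no-drug wells; at most 1.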

CC1=C(C(=O)O)N2C(=O)[C@@H](NC(=O)[C@H](N)c3ccccc3)[C@H]2SC1 [Cephalexin] + CN[C@@H]1[C@H](O[C@H]2[C@H](O[C@H]3[C@H](O)[C@@H](O)[C@H](N=C(N)N)[C@@H](O)[C@@H]3N=C(N)N)O[C@@H](C)[C@]2(O)C=O)O[C@@H](CO)[C@H](O)[C@H]1O [Streptomycin]
fitness
Settings	first compound 0.125 µg/mL	first compound 0.25 µg/mL	first compound 0.5 µg/mL	first compound 1 µg/mL	first compound 2 µg/mL	first compound 4 µg/mL
B. subtilis 168 [2], partner 2 µg/mL	0.94	0.923	0.932	–	–	–
B. subtilis 168 [2], partner 8 µg/mL	0.031	0.0416	0.0533	–	–	–
S. aureus Newman [1], partner 1 µg/mL	–	0.944	0.967	0.987	–	–
S. aureus Newman [1], partner 2 µg/mL	–	0.976	≥ 1	≥ 1	–	–
S. pneumoniae D39V [3], partner 4 µg/mL	–	–	–	0.454	0.0189	0.0459
S. pneumoniae D39V [3], partner 8 µg/mL	–	–	–	0.408	0.0381	0.0337

fitness, S. pneumoniae D39V [3], one replicate
Settings	first compound 0.125 µg/mL	first compound 0.25 µg/mL	first compound 0.5 µg/mL	first compound 1 µg/mL	first compound 2 µg/mL	first compound 4 µg/mL
partner 2 µg/mL	0.86	0.913	0.953	0.386	0.0034	0.0206
partner 4 µg/mL	0.901	0.91	0.911	–	–	–
partner 8 µg/mL	0.961	0.898	0.896	–	–	–
partner 16 µg/mL	–	–	–	0.198	0.0581	0.0194

Settings	Bliss interaction score
B. subtilis 168 [5]	0.0604
S. aureus DSM 20231	-0.157
S. aureus Newman [4]	0.0561
S. pneumoniae D39V [6]	-0.153

CC1=C(C(=O)O)N2C(=O)[C@@H](NC(=O)[C@H](N)c3ccccc3)[C@H]2SC1 [Cephalexin] + COc1c(N2C[C@@H]3CCCN[C@@H]3C2)c(F)cc2c(=O)c(C(=O)O)cn(C3CC3)c12 [Moxifloxacin]
Settings	fitness
B. subtilis 168 [2], first compound 0.125 µg/mL, partner 2 µg/mL	0.0423
B. subtilis 168 [2], first compound 0.125 µg/mL, partner 4 µg/mL	0.0453
B. subtilis 168 [2], first compound 0.125 µg/mL, partner 8 µg/mL	0.0194
B. subtilis 168 [2], first compound 0.25 µg/mL, partner 0.0312 µg/mL	0.0487
B. subtilis 168 [2], first compound 0.25 µg/mL, partner 0.0625 µg/mL	0.0549
B. subtilis 168 [2], first compound 0.25 µg/mL, partner 0.125 µg/mL	0.0364
B. subtilis 168 [2], first compound 0.25 µg/mL, partner 2 µg/mL	0.0473
B. subtilis 168 [2], first compound 0.25 µg/mL, partner 4 µg/mL	0.0392
B. subtilis 168 [2], first compound 0.25 µg/mL, partner 8 µg/mL	0.027
B. subtilis 168 [2], first compound 0.5 µg/mL, partner 0.0312 µg/mL	0.0585
B. subtilis 168 [2], first compound 0.5 µg/mL, partner 0.0625 µg/mL	0.0464
B. subtilis 168 [2], first compound 0.5 µg/mL, partner 0.125 µg/mL	0.0607
B. subtilis 168 [2], first compound 0.5 µg/mL, partner 2 µg/mL	0.0441
B. subtilis 168 [2], first compound 0.5 µg/mL, partner 4 µg/mL	0.0483
B. subtilis 168 [2], first compound 0.5 µg/mL, partner 8 µg/mL	0.0385
B. subtilis 168 [2], first compound 1 µg/mL, partner 0.0312 µg/mL	0.0562
B. subtilis 168 [2], first compound 1 µg/mL, partner 0.0625 µg/mL	0.0588
B. subtilis 168 [2], first compound 1 µg/mL, partner 0.125 µg/mL	0.0618
S. aureus Newman [1], first compound 0.25 µg/mL, partner 0.0075 µg/mL	0.788
S. aureus Newman [1], first compound 0.5 µg/mL, partner 0.0075 µg/mL	0.812
S. aureus Newman [1], first compound 0.5 µg/mL, partner 0.015 µg/mL	0.691
S. aureus Newman [1], first compound 1 µg/mL, partner 0.0075 µg/mL	0.807
S. pneumoniae D39V [3], first compound 4 µg/mL, partner 0.005 µg/mL	0.0502
S. pneumoniae D39V [3], first compound 4 µg/mL, partner 0.01 µg/mL	0.059
S. pneumoniae D39V [3], first compound 4 µg/mL, partner 0.02 µg/mL	0.0505

fitness, S. pneumoniae D39V [3], one replicate
Settings	first compound 0.125 µg/mL	first compound 0.25 µg/mL	first compound 0.5 µg/mL
partner 0.0037 µg/mL	0.856	0.855	0.836
partner 0.0075 µg/mL	0.948	0.843	0.819
partner 0.015 µg/mL	0.839	0.813	0.808

Settings	Bliss interaction score
B. subtilis 168 [5]	0.0149
S. aureus DSM 20231	-0.0585
S. aureus Newman [4]	0.07
S. pneumoniae D39V [6]	-0.0683

CC1=C(C(=O)O)N2C(=O)[C@@H](NC(=O)[C@H](N)c3ccccc3)[C@H]2SC1 [Cephalexin] + COc1ccc(C[C@H](N)C(=O)N[C@H]2[C@@H](O)[C@H](n3cnc4c(N(C)C)ncnc43)O[C@@H]2CO)cc1 [Puromycin]
fitness
Settings	first compound 0.125 µg/mL	first compound 0.25 µg/mL	first compound 0.5 µg/mL	first compound 1 µg/mL
B. subtilis 168 [2], partner 0.39 µg/mL	0.944	0.912	0.869	–
B. subtilis 168 [2], partner 0.78 µg/mL	0.952	0.891	0.935	–
B. subtilis 168 [2], partner 1.56 µg/mL	0.921	0.888	0.938	–
S. aureus Newman [1], partner 0.39 µg/mL	–	0.991	≥ 1	0.99
S. aureus Newman [1], partner 0.78 µg/mL	–	≥ 1	≥ 1	≥ 1
S. aureus Newman [1], partner 1.56 µg/mL	–	≥ 1	0.976	0.991

fitness, S. pneumoniae D39V [3], one replicate
Settings	first compound 0.125 µg/mL	first compound 0.25 µg/mL	first compound 0.5 µg/mL	first compound 1 µg/mL	first compound 2 µg/mL	first compound 4 µg/mL
partner 1 µg/mL	≥ 1	≥ 1	≥ 1	0.158	0.0772	0.0589
partner 2 µg/mL	0.939	0.926	≥ 1	0.3	0.0861	0.055
partner 4 µg/mL	0.798	0.883	0.893	0.0824	0.0686	0.047

Settings	Bliss interaction score
B. subtilis 168 [5]	0.0628
S. aureus DSM 20231	0.0696
S. aureus Newman [4]	0.043
S. pneumoniae D39V [6]	-0.101
